Test results from PubChem BioAssay (NCI).
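How tested: cells in 96-well plates exposed to compound for 48 hours at five concentrations. TGI denotes the concentration required for complete inhibition of growth.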

Experiments:
Assay in all cases: NCI tumour cell line growth inhibition, 48 h
[1] = test system: SF-268 CNS
[2] = test system: OVCAR-8 ovarian
[3] = test system: SK-OV-3 ovarian
[4] = test system: UO-31 renal
[5] = test system: SK-MEL-5 melanoma
[6] = test system: HCT-116 colon
[7] = test system: 786-0 renal
[8] = test system: NCI-H23 lung
[9] = test system: UACC-257 melanoma
[10] = test system: CAKI-1 renal
[11] = test system: HL-60(TB) leukemia
[12] = test system: NCI-H460 lung
[13] = test system: NCI-H226 lung
[14] = test system: PC-3 prostate
[15] = test system: MDA-MB-435
[16] = test system: DU-145 prostate
[17] = test system: MDA-MB-231 breast
[18] = test system: A498 renal

Measured: TGI

NC(=S)N/N=C/c1cn(CCCl)c2ccccc12
53.8 µM: [11]
67.4 µM: [5]
> 100 µM: [1] | [2] | [3] | [4] | [6] | [7] | [8] | [9] | [10]

O=C1CCN(CCC(F)(F)C(F)(F)C(F)(F)C(F)(F)F)C(=S)N1
> 100 µM: [1] | [2] | [4] | [5] | [6] | [7] | [8] | [12] | [13] | [11]

Cc1nn(C(=O)c2ccc(Cl)cc2)c2c1C(c1ccccc1)SC(N)=N2 (centres undefined)
not listed: [4] | [18]
> 10 µM: all other assays above

NC(=S)Nc1c(S(N)(=O)=O)cc(S(N)(=O)=O)c(Cl)c1Cl
not listed: [12] | [18]
> 100 µM: all other assays above

Cc1c(/C=N/NC(=S)Nc2ccc([N+](=O)[O-])cc2)c(=O)n(-c2ccccc2)n1C
32.6 µM: [8]
76.8 µM: [14]
27.3 µM: [7]
> 100 µM: [5] | [15] | [9] | [11]
31.6 µM: [2]
26.3 µM: [3]
24 µM: [18]
52.3 µM: [6]
26.7 µM: [1]
29.7 µM: [13]
49.2 µM: [4] | [17]
18.9 µM: [10]

Cc1cc(N(C)C)ccc1N=Nc1ccc2ncccc2c1
98.1 µM: [5]
not listed: [18]
> 100 µM: all other assays above

COc1cc(Br)cc2c1O[C@H]1C(=O)CC3CC21CCN3C (some centres undefined)
71.7 µM: [2]
42.7 µM: [11]
68.2 µM: [8]
not listed: [12] | [13] | [16] | [17]
> 100 µM: all other assays above

CCc1nc2c(n1CC)C(=O)c1ccccc1C2=O
51.4 µM: [9]
> 10 µM: [5] | [6]
49.4 µM: [17]
32.2 µM: [15]
63.7 µM: [14]
not listed: [3] | [4] | [10] | [18]
> 100 µM: all other assays above

CC(=O)OC12c3ccccc3C(c3ccccc31)C1C(=O)N(c3ccccc3O)C(=O)C12 (centres undefined)
not listed: [15]
> 100 µM: all other assays above

Cc1ccc(NCCO)cc1
not listed: [14] | [15] | [16] | [17] | [18]
> 100 µM: all other assays above

CC1OC(n2ccc3ccc([N+](=O)[O-])cc32)C(O)C(O)C1O (centres undefined)
not listed: [14] | [15] | [16] | [17]
> 100 µM: all other assays above

COc1ccc(/C=C2\C(=O)Nc3ccccc32)cc1OC
not listed: [14] | [15] | [16] | [17]
> 100 µM: all other assays above

O=c1[nH]ncc2[nH]c(-c3ccccc3)cc12
60.5 µM: [5]
95.1 µM: [14]
not listed: [18]
> 100 µM: all other assays above

CC1=N/C(=C\c2ccc(N)cc2)C(=O)N1Nc1nnc(NN2C(=O)/C(=C/c3ccc(N)cc3)N=C2C)c2ccccc12
> 100 µM: [1] | [2] | [5] | [6] | [7] | [8] | [9] | [12] | [18]
56.5 µM: [13]
56.1 µM: [11]

CC(Cc1ccc(O)cn1)(NC(=O)c1ccccc1)C(=O)O (centres undefined)
not listed: [18]
> 100 µM: all other assays above

Nc1ccc(N=Nc2ccc(-c3ccc(N=Nc4c(S(=O)(=O)O)cc5cc(S(=O)(=O)O)c(N=Nc6ccc([N+](=O)[O-])cc6)c(N)c5c4O)cc3)cc2)c2cc(S(=O)(=O)O)ccc12
not listed: [14] | [15] | [16] | [17]
> 100 µM: all other assays above

Cn1c(=O)oc2cc(C(=O)CN3CCN(Cc4ccc5c(c4)OCO5)CC3)c(Cl)cc21
not listed: [2] | [9] | [13] | [15] | [18]
> 100 µM: all other assays above

COc1cc(/C=C(\C)c2ccc3c(c2)OCO3)cc(OC)c1OC
83.5 µM: [18]
79.2 µM: [4]
75.1 µM: [3]
24.2 µM: [5]
not listed: [10] | [14] | [15] | [16] | [17]
> 100 µM: all other assays above

COc1cc(C)cc(C(=O)OCc2ccccc2)c1C1=C(Cl)C(=O)C(Cl)=CC1=O
2.55 µM: [11]
not listed: [18]
> 10 µM: all other assays above

CC[C@H](C)[C@H](NC(=O)[C@H](Cc1ccc(O)cc1)NCC(F)(F)F)C(=O)OC(C)(C)C
20.5 µM: [8]
15.7 µM: [10]
29.8 µM: [2]
16.1 µM: [7]
15.3 µM: [5]
14.1 µM: [14] | [12]
15.5 µM: [17]
14.8 µM: [4] | [15] | [18]
18.8 µM: [13]
24.6 µM: [1]
14.7 µM: [9]
17.3 µM: [3]
16.6 µM: [6]

CC(=O)OC12c3ccccc3C(c3ccccc31)C1C(=O)N(Nc3ccccc3)C(=O)C12 (centres undefined)
not listed: [15]
> 100 µM: all other assays above

CNc1cccc(-c2cc(=O)c3cc4c(cc3[nH]2)OCO4)c1
7.28 µM: [8]
4.52 µM: [17]
8.87 µM: [16]
8.71 µM: [13]
1.07 µM: [3]
6.92 µM: [5]
> 50.8 µM: [4]
2.89 µM: [11]
not listed: [2] | [15] | [18]
> 100 µM: all other assays above

N#CC(NNC(=O)Cc1ccccc1)c1ccc(O)cc1 (centres undefined)
not listed: [14] | [15] | [16] | [17] | [18]
> 100 µM: all other assays above

CC1(C)OP(=O)(c2ccccc2)C=C1Br (centres undefined)
not listed: [4] | [17]
> 100 µM: all other assays above

CC1(C)CC(=O)c2c(nc3c(ccc4ccccc43)c2-c2ccc(NC(=O)CCCCCCCCC(=O)Nc3ccc(-c4c5c(nc6c4ccc4ccccc46)CC(C)(C)CC5=O)cc3)cc2)C1
not listed: [8] | [18]
> 100 µM: all other assays above

O=C1NC(=S)NC1C(Cc1ccccc1)c1ccco1 (centres undefined)
not listed: [14]
> 100 µM: all other assays above

Cc1ccc(NC(=O)C23CC4CC(CC(C4)C2)C3)c(C(=O)NNC(=O)c2ccc(Cl)cc2)c1
55.5 µM: [11]
69.2 µM: [12]
73.8 µM: [10]
9.53 µM: [9]
37 µM: [4]
42.6 µM: [5]
39 µM: [3]
62.6 µM: [13]
69.5 µM: [14]
50.3 µM: [17]
37.4 µM: [15]
59 µM: [7]
38.8 µM: [8]
not listed: [18]
> 100 µM: all other assays above

Nc1c2ccccc2nc2nccnc12
not listed: [14] | [15] | [16] | [17]
> 100 µM: all other assays above

Cc1ccc([N+](=O)[O-])cc1S(=O)(=O)Nc1ccc(C(=O)/C=C/c2ccccc2)cc1
32.1 µM: [5]
33.1 µM: [7]
34.6 µM: [9]
65.1 µM: [11]
55.4 µM: [10]
29.3 µM: [6]
73.2 µM: [1]
50.2 µM: [2]
37.8 µM: [12]
95 µM: [3]
36.6 µM: [15]
34.7 µM: [8]
32.3 µM: [17]
40.7 µM: [4]
29.5 µM: [16]
98.4 µM: [13]
30.6 µM: [14]

CCCCCCCCOP(=O)(O)OP(=O)(O)OCC1OC(n2ccc(N)nc2=O)C(O)C1O (centres undefined)
not listed: [16]
> 100 µM: all other assays above
